Patent US20110039721A1, “METHOD FOR PREDICTION ABOUT CARCINOGENICITY OF SUBSTANCE IN RODENT” (Chemicals Evaluation and Research Institute, priority 2007, published 2011)

Tests used:
[1] = classification of the substance (M+/M−); cited from earlier work
liver = conditions: in vivo; cited from earlier work
rodent = conditions: in vivo; cited from earlier work
[2] = system: mRNA expressed from the genes (A) to (D) in rat liver; assay: Behavior of genes (mRNA expression level, oligo-DNA microarray) in rat liver after 28-day oral administration; assay type: in vivo; conditions: mRNA vs vehicle control group
In short: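 Rat liver RNA after 28 days of daily gavage dosing (male F344, 5 weeks old, four per group). A change reaching 1.5-fold, or 1/1.5, against solvent control scores as significant; opposite direction versus another carcinogen scores as not significant.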

[3] = gene group (A), Unigene No. Rn.167075
[4] = gene group (C), Unigene No. Rn.120914

Cc1c2ccccc2c(C)c2c1ccc1ccccc12 [TS047, 7,12-Dimethylbenz [a]anthracene]
Mutagenicity by Ames test [1]: M+ | Liver carcinogenicity (liver): Cr− | Carcinogenicity (rodent): C+ | Behavior of gene caused by administration of chemical substance, Gene No. 4846 ([2]; gene group (A), Unigene No. Rn.144554): − | Behavior of gene caused by administration of chemical substance, Gene No. 2026 [2, 3]: − | Behavior of gene caused by administration of chemical substance, Gene No. 4218 [2, 3]: − | Behavior of gene caused by administration of chemical substance, Gene No. 6182 ([2]; gene group (A), Unigene No. Rn.5834): − | Behavior of gene caused by administration of chemical substance, Gene No. 5600 ([2]; gene group (A), Unigene No. Rn.9836): − | Behavior of gene caused by administration of chemical substance, Gene No. 1494 ([2]; gene group (B), Unigene No. Rn.1430): − | Behavior of gene caused by administration of chemical substance, Gene No. 2045 ([2]; gene group (B), Unigene No. Rn.19329): − | Behavior of gene caused by administration of chemical substance, Gene No. 2203 ([2]; gene group (B), Unigene No. Rn.21240): − | Behavior of gene caused by administration of chemical substance, Gene No. 533 ([2]; gene group (C), Unigene No. Rn.106184): − | Behavior of gene caused by administration of chemical substance, Gene No. 725 ([2]; gene group (C), Unigene No. Rn.108075): + | Behavior of gene caused by administration of chemical substance, Gene No. 1163 ([2]; gene group (C), Unigene No. Rn.11766): + | Behavior of gene caused by administration of chemical substance, Gene No. 4973 ([2]; gene group (C), Unigene No. Rn.118529): − | Behavior of gene caused by administration of chemical substance, Gene No. 4095 ([2]; gene group (C), Unigene No. Rn.119024): − | Behavior of gene caused by administration of chemical substance, Gene No. 1334 [2, 4]: − | Behavior of gene caused by administration of chemical substance, Gene No. 6620 [2, 4]: − | Behavior of gene caused by administration of chemical substance, Gene No. 6303 ([2]; gene group (C), Unigene No. Rn.123063): − | Behavior of gene caused by administration of chemical substance, Gene No. 5878 ([2]; gene group (C), Unigene No. Rn.143213): − | Behavior of gene caused by administration of chemical substance, Gene No. 1131 ([2]; gene group (C), Unigene No. Rn.144946): − | Behavior of gene caused by administration of chemical substance, Gene No. 1562 ([2]; gene group (C), Unigene No. Rn.14744): − | Behavior of gene caused by administration of chemical substance, Gene No. 1741 ([2]; gene group (C), Unigene No. Rn.1647): − | Behavior of gene caused by administration of chemical substance, Gene No. 893 ([2]; gene group (C), Unigene No. Rn.164817): − | Behavior of gene caused by administration of chemical substance, Gene No. 6026 ([2]; gene group (C), Unigene No. Rn.167685): − | Behavior of gene caused by administration of chemical substance, Gene No. 154 ([2]; gene group (C), Unigene No. Rn.185941): − | Behavior of gene caused by administration of chemical substance, Gene No. 1993 ([2]; gene group (C), Unigene No. Rn.18728): − | Behavior of gene caused by administration of chemical substance, Gene No. 813 ([2]; gene group (C), Unigene No. Rn.201760): − | Behavior of gene caused by administration of chemical substance, Gene No. 2494 ([2]; gene group (C), Unigene No. Rn.23969): − | Behavior of gene caused by administration of chemical substance, Gene No. 2546 ([2]; gene group (C), Unigene No. Rn.24561): − | Behavior of gene caused by administration of chemical substance, Gene No. 3776 ([2]; gene group (C), Unigene No. Rn.43232): − | Behavior of gene caused by administration of chemical substance, Gene No. 3929 ([2]; gene group (C), Unigene No. Rn.4620): − | Behavior of gene caused by administration of chemical substance, Gene No. 1119 ([2]; gene group (C), Unigene No. Rn.9757): − | Behavior of gene caused by administration of chemical substance, Gene No. 6742 ([2]; gene group (C), Unigene No. Rn.9779): − | Behavior of gene caused by administration of chemical substance, Gene No. 5634 ([2]; gene group (C), Unigene No. Rn.9862): − | Behavior of gene caused by administration of chemical substance, Gene No. 5726 ([2]; gene group (D), Unigene No. Rn.9939): +
